In one data set the target is T1, GluN1/GluN2B receptors (Rattus norvegicus, UniProt P35439+Q00960).
T1 construct: expressed in transfected cells; host or cells: HEK293 cells (ATCC No. CRL-1573)
The arrangement: method as in PMID 29708744. Conditions: reference compound PES; cited from earlier work.

The nature of the next data set: Stability in rat plasma. Conditions: rat plasma, 37 °C. It counts as in vitro ADME. Here is the method: Compounds were prepared as 1.6 mg mL^−1 stock solutions in methanol. Then, 20 µL of stock solution was added to 1000 µL of rat plasma (BioIVT, Cat. No. RAT00PLLH-0102307), maintained at 37 °C. Aliquots (50 µL) withdrawn at 0, 8, and 24 h were analyzed by HPLC. An aliquot of plasma was extracted with methanol (450 µL) containing an internal standard, and the solution was vortexed (20 s) and centrifuged at 13 500 rpm for 10 min. The supernatant was transferred to an autosampler vial, and 10 µL was injected into an LC-MS system. The samples were analyzed using an Agilent 6230 TOF LC/MS. Samples were separated on a Waters ACQUITY UPLC CSH Phenyl-Hexyl column (100 × 2.1, 130 Å, 1.7 µm) at a flow rate of 0.3 mL min^−1. […]. The temperature, the flow rate of the nitrogen drying gas, the pressure of the nitrogen nebulizing gas, and the flow rate of the sheath gas were set at 325 °C, 10 L min^−1, 40 psi, […], and 11 L min^−1, respectively. Results are represented as a percentage of the compound remaining in spiked plasma.

A short description of data set [1]: Thermodynamic solubility in PBS pH 7.4. Format: physicochemical. Conditions: PBS, 20 °C, pH 7.4, aqueous buffer, thermodynamic from solid, PBS pH 7.4, 20 °C, 24 h; read-out: Solubility PBS, pH 7.4 (thermodynamic). Here is the method: The reference samples were prepared as follows: a weight corresponding to 2.5 µmol was dissolved in 250 µL of DMSO, resulting in a concentration of 10 mM stock solution. Each calibration level standard was prepared by diluting the stock solution in a mixture of PBS and acetonitrile (50 : 50 v/v). The samples for testing were prepared as follows: the volume of 1000 µL of PBS was added to the testing tube containing a weight of sample corresponding to 0.4 mM. The mixture was shaken at 1000 rpm at 20 °C for 24 h. The mixture was then filtered using a syringe polypropylene 0.45 µm filter. Samples and calibration standards are prepared using an automated system of a robotic arm (PAL-RTC, Switzerland). Then, the sample was analysed on chromatographic system (Vanquish UHPLC, Thermo Fisher Scientific, Germany) connected to the diode array detector and consequently to the charged aerosol detector (both Vanquish, Thermo Fisher Scientific, Germany), Thermo Scientific Accucore C8 (100 × 3 mm; 2.6 µm) column, using gradient elution with acetonitrile/methanol/5 mM formate buffer (pH = 3.00); flow: 1.0 cm^3 min^−1; column temperature: 40 °C; CAD temperature: 30 °C; sample volume: 5 mm^3.

Another data set addresses NMDA receptors. Conditions: cited from earlier work; for Activity at NMDARs: C-17 ketone steroids.

Structures can show the parent of a compound that is named as a salt.

T1 sequence (Q00960 27-1482, other chains not shown): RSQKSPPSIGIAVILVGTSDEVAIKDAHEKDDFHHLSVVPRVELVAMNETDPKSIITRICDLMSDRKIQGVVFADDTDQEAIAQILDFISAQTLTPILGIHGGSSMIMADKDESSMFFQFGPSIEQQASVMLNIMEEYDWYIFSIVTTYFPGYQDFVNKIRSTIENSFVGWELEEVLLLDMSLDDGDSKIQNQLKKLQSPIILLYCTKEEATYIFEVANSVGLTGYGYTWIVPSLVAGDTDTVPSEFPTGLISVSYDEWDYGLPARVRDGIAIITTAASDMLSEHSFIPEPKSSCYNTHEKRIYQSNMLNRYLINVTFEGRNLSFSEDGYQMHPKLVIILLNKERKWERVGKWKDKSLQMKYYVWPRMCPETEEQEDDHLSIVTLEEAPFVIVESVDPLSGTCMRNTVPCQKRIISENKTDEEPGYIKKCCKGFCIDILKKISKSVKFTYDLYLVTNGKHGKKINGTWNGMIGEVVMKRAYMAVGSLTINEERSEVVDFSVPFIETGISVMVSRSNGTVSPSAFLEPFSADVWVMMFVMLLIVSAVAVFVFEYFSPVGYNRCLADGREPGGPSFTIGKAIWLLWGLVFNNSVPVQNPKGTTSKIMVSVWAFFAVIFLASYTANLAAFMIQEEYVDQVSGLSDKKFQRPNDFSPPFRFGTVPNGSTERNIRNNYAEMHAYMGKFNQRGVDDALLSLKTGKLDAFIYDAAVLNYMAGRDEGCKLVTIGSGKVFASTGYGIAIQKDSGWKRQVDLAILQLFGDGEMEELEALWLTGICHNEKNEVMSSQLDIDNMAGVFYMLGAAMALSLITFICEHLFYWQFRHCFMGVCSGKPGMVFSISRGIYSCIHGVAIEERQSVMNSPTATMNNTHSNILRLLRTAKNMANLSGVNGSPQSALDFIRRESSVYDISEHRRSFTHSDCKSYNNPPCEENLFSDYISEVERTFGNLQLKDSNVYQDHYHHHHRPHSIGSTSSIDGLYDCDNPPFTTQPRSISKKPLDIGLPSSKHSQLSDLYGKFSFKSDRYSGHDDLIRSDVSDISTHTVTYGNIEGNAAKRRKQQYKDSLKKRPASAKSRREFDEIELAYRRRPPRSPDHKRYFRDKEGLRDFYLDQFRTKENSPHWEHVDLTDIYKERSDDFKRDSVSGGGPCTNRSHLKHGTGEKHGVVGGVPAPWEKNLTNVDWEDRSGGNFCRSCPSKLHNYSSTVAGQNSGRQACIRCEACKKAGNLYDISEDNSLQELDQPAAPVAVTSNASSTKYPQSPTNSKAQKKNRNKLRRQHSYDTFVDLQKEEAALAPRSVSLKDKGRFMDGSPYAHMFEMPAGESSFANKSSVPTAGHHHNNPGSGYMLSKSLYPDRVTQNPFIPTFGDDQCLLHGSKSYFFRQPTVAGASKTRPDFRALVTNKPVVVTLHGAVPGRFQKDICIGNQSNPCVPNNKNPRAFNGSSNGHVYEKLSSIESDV

Regarding 20-oxo-pregn-5-en-3β-yl sulfate [PES], on GluN1/GluN2B receptors, the “E max ± SEM” value is on record as 116 ± 10% and the “h ± SEM (apparent Hill coefficient)” value is listed as 1.5 ± 0.1.
By solubility (thermodynamic) is commonly meant the concentration in solution at equilibrium with solid. As to `CC(=O)[C@H]1CC[C@H]2[C@@H]3CC=C4C[C@@H](OC(=O)CCC(=O)O)CC[C@]4(C)[C@H]3CC[C@]12C` [20-Oxo-PE-hSuc, 20-Oxo-pregn-5-en-3β-yl hemisuccinate, reference compound], the “Stability in rat plasma (% remaining) 8 h” value in “Stability in rat plasma” (8 h) is recorded as 69 ± 1 % remaining. Further, in the data set “Stability in rat plasma” (24 h), the “Stability in rat plasma (% remaining) 24 h” value stood at 50 ± 2 % remaining. In addition, the thermodynamic solubility at 24 h in data set [1] came out at 277 ± 1 µM.
By IC50 is commonly meant the point on the concentration scale where inhibition reaches its midpoint. Turning to `CC(=O)[C@H]1CC[C@H]2[C@@H]3CC[C@@H]4C[C@H](OS(=O)(=O)O)CC[C@]4(C)[C@H]3CC[C@]12C` [PAS, 20-oxo-5β-pregnan-3α-yl sulfate], the 50% inhibitory concentration (IC50) at NMDA receptors (in Fig. 1, read-out: IC50, negative allosteric modulation of NMDA receptors) was 24.6 µM.
In the case of `C[C@]12CC[C@H](OS(=O)(=O)O)CC1=CCC1C2CC[C@]2(C)C(=O)CCC12` (some centres unmarked) [dehydroepiandrosterone sulfate], the “Activity at NMDARs” value in the data set on NMDA receptors was “inactive”.
For the compound `C[C@]12CC[C@H](O)CC1=CC[C@@H]1[C@@H]2CC[C@]2(C)C(=O)CC[C@@H]12` [dehydroepiandrosterone, 3β-hydroxy-androst-5-en-17-one], the “Activity at NMDARs” value in the data set on NMDA receptors is “inactive”.
